Measured values taken from US11046716B2, “Beta-lactamase inhibitors” (priority 2015, dated 2021).

Experiments:
[1] = system: E. coli expressing the Class A Extended Spectrum Beta-Lactamase (ESBL) CTX-M-15; assay: Broth microdilution MIC assay with ceftazidime, E. coli CTX-M-15; assay type: cell-based; conditions: for MIC (μg/mL) of Exemplary Compounds in presence of fixed β-lactams: E. coli ESBL4 CTX-M-15: Fixed CAZ (ceftazidime) 4 μg/mL
Source text: (§1) To determine the ability of test compounds to potentiate the inhibition of the growth of bacterial strains that produce beta-lactamase enzymes in the presence of a β-lactam antibiotic, classic cell based broth microdilution MIC assays were employed. Six bacteria strains producing beta-lactamase enzymes were used: E. coli expressing the Class A Extended Spectrum Beta-Lactamase (ESBL) CTX-M-15, E. cloacae expressing the Class C P99, K. pneumoniae expressing the Class A carbapenemase KPC-2, P. aeruginosa expressing the Class B carbapenemase VIM-2, K. pneumoniae expressing the class A carbapenemase KPC-2 and the class B carbapenemase VIM-4, and K. pneumoniae producing the Class D carbapenemase OXA-48. The assay was conducted in Cation Adjusted Mueller Hinton Broth (CAMHB, BD #212322, BD Diagnostic Systems, Sparks, Md.). Bacteria strains were grown for 3-5 hours in CAMBH broth. Test compounds (Examples 1-94) were added to a microtiter plate in 2-fold serial dilutions in CAMHB in a final concentration range of 16 μg/mL to 0.125 μg/ml. An overlay of CAMHB containing a Beta-lactam was added to the compounds at a final static concentration of 4 μg/ml. […] In addition to the titration of test compounds the MICs of a panel of control beta-lactams is also tested to ensure the strains are behaving consistently from test to test. Once the test compound and antibiotics are added the plates can be inoculated according to CLSI broth microdilution method. After inoculation the plates are incubated for 16-20 hours at 37° C. then the Minimal Inhibitory Concentration (MIC) of the test compound is determined visually.
(§2) Using the methodology described above, examples of the current invention were evaluated for their ability to inhibit the growth of β-lactamase-producing bacteria in the presence of a β-lactam antibiotic.

[2] = system: E. cloacae expressing the Class C P99; assay: Broth microdilution MIC assay with ceftazidime, E. cloacae P99; assay type: cell-based; conditions: Enterobacter cloacae, read-out: MIC alone
Source text: as §1, §2

[3] = target: T1, SHV-5 (Klebsiella pneumoniae, UniProt P0A3M1); assay: β-lactamase enzyme inhibition assay, SHV-5 (cefotaxime substrate); assay type: biochemical
T1 construct: made in house; host or cells: E. coli BL21(DE3)
Experimental: (§3) For SHV-5, Kpc-2, p99AmpC and OXA-1 β-lactamases, E. coli BL21(DE3) bacterial cells carrying expression plasmids (expressed as native untagged proteins) for the individual β-lactamases were grown in 1 L of Superbroth (Teknova Inc. Hollister, Calif.) supplemented with 100 μg/ml kanamycin selection and 1×5052 (0.5% glycerol, 0.05% glucose and 0.2% α-lactose) at 35° C. for 18-20 hours. Cells were harvested by centrifugation (4,000×g, 4° C., 20 min), resuspended in 50 ml of 10 mM HEPES pH 7.5 ( 1/20 of the initial volume). The cells were lysed by sonication (5 pulses of 45 seconds) at 45 W on ice. The lysates were clarified by centrifugation at 10,000×g for 40 minutes at 4° C. Samples were diluted 5-fold in 50 mM sodium acetate pH 5.0, stored overnight at 4° C., after which they were centrifuged at 10,000×g for 30 minutes to clarify, and filtered through 0.45 μm filters. The samples were loaded onto a 5 ml Capto S sepharose cation exchange column (GE Healthcare) pre-equilibrated with 50 mM sodium acetate pH 5.0. The column was washed with 5 column volumes of 50 mM sodium acetate pH 5.0 to wash out unbound protein and a linear gradient of NaCl (0 to 500 mM) was used to elute the protein (over 16 CV) from the column. Fractions were assayed for β-lactamase activity using Centa (Calbiochem, Gibbstown, N.J.) or Nitrocefin (EMD Millipore chemicals, Darmstadt, Germany) as a reporter β-lactamase substrate for activity in the isolated fractions. Active fractions were pooled, concentrated and further purified by gel filtration chromatography on a Superdex 75 prep grade gel filtration column (GE Healthcare, Piscataway, N.J.) pre-equilibrated in 50 mM Hepes pH 7.5, 150 mM NaCl. Active fractions were pooled concentrated, quantitated by BCA protein determination (Thermo Scientific, Rockford, Ill.), dialyzed into PBS and frozen at −80° C. in 20% glycerol until use.
(§4) An equal volume of diluted enzyme stock was added, and the plates were incubated at 37° C. for 15 min. Nitrocefin was used as substrate for p99 AmpC, VIM-2 and OXA-1 and dispensed into each well at a final concentration of 100 μM. Absorbance at 486 nm was immediately monitored for 10 min using a Biotek Powerwave XS2 microplate spectrophotometer using the GEN5 software package (Biotek Instruments, Winooski Vt.). In an analogous fashion, imipenem was used as substrate for Kpc-2 and Cefotaxime was used for SHV-5, while changes in absorbance upon hydrolysis of the β-lactam ring were monitored at 300 nm and 260 nm respectively in UV-transparent 96-well microtiter assay plates. Maximum rates of hydrolysis were compared to those in control wells (without inhibitors), and percentages of enzyme inhibition were calculated for each concentration of inhibitor. The concentration of inhibitor needed to reduce the initial rate of hydrolysis of substrate by 50% (IC50) was calculated as the residual activity of β-lactamase at 486 nm using GraFit version 7 kinetics software package (Erithacus Software, Surrey, UK).
(§5) Using the methodology described above, examples of the current invention were evaluated for their ability to inhibit β-lactamase enzymes from all four Ambler classifications (A through D). […] NT=Not tested.

[4] = target: T2, KPC-2 (Klebsiella pneumoniae, UniProt Q9F663); assay: β-lactamase enzyme inhibition assay, KPC-2 (imipenem substrate); assay type: biochemical; conditions: Class A; imipenem substrate, 300 nm; read-out: KPC-2
T2 construct: made in house; host or cells: E. coli BL21(DE3)
Experimental: as §3, §4, §5

[5] = target: T3, VIM-2 (Escherichia coli, UniProt Q5U7L7); assay: β-lactamase enzyme inhibition assay, VIM-2 (nitrocefin substrate); assay type: biochemical; conditions: Class B; nitrocefin substrate, 486 nm; read-out: VIM-2
T3 construct: made in house; host or cells: E. coli BL21(DE3)
Experimental: For Vim-2 metallo β-lactamase, the procedure was identical with the following exceptions, first the protein was not pH adjusted to pH 5 with 50 mM sodium acetate, second, the chromatography step was changed to a 5 ml Q sepharose anion exchange column pre-equilibrated with 50 mM Hepes pH 7.5, and elution of the protein was achieved by a linear gradient of NaCl (0-600 mM). Finally, the VIM-2 purification required a second run (3rd step) on the Q sepharose anion exchange column to achieve acceptable purity (>90%).
as §4, §5

[6] = target: T4, AmpC (Enterobacter cloacae, UniProt P05364); assay: β-lactamase enzyme inhibition assay, p99 AmpC (nitrocefin substrate); assay type: biochemical
T4 construct: made in house; host or cells: E. coli BL21(DE3)
Experimental: as §3, §4, §5

[7] = system: P. aeruginosa expressing the Class B carbapenemase VIM-2; assay: Broth microdilution MIC assay with meropenem, P. aeruginosa VIM-2; assay type: cell-based; conditions: Fixed Mero (meropenem) 4 μg/mL; P. aerug. 2775 VIM-2
Source text: as §1, §2

[8] = system: K. pneumoniae expressing the class A carbapenemase KPC-2 and the class B carbapenemase VIM-4; assay: Broth microdilution MIC assay with meropenem, K. pneumoniae KPC-2 and VIM-4; assay type: cell-based; conditions: Fixed Mero (meropenem) 4 μg/mL; K. p. A-1797 KPC-2 VIM-4
Source text: as §1, §2

[9] = system: K. pneumoniae producing the Class D carbapenemase OXA-48; assay: Broth microdilution MIC assay with meropenem, K. pneumoniae OXA-48; assay type: cell-based; conditions: Fixed Mero (meropenem) 4 μg/mL; K. p. 11978 OXA-48
Source text: as §1, §2

[10] = system: K. pneumoniae expressing the Class A carbapenemase KPC-2; assay: Broth microdilution MIC assay with meropenem, K. pneumoniae KPC-2; assay type: cell-based; conditions: Fixed Mero (meropenem) 4 μg/mL; K. p. 156319 KPC-3
Source text: as §1, §2

[11] = target: OXA-48 (UniProt Q6XEC0); assay: β-lactamase enzyme inhibition assay, Class D oxacillinase; assay type: biochemical; conditions: read-out: OXA-48

T2 sequence (Q9F663 25-293, looked up): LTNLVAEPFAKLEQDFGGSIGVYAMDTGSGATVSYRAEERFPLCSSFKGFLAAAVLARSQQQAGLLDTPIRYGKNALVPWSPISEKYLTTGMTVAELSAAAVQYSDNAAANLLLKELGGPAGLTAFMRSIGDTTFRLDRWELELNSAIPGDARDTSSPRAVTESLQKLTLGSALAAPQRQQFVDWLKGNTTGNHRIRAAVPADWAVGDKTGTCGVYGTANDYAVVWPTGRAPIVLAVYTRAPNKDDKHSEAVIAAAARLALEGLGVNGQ
T1 sequence (P0A3M1 22-286): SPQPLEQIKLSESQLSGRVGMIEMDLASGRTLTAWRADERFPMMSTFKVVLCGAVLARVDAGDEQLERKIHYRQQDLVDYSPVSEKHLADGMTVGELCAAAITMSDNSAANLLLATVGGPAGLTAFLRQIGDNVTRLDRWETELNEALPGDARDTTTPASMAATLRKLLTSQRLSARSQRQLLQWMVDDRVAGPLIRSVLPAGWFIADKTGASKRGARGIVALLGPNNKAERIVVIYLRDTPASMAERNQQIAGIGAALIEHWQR
T4 sequence (P05364 21-381): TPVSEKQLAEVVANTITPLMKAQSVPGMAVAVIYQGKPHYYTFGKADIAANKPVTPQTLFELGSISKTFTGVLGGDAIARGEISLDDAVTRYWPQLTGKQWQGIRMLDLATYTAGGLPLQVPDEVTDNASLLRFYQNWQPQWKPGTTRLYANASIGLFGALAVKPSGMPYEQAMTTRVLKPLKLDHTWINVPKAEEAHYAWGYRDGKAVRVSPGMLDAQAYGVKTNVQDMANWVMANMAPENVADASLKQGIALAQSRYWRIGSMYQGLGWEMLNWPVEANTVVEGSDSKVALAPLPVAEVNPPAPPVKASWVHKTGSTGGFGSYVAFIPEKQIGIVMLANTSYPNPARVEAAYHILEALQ

Compound	MIC ([1]; Escherichia coli, read-out: MIC alone) [µg/mL]	MIC [2] [µg/mL]	IC50 [3] [nM]	IC50 [4] [nM]	IC50 [5] [nM]	IC50 [6] [nM]	MIC (μg/mL) of Exemplary Compounds in presence of fixed β-lactams: P. aerug. 2775 VIM-2 [7]	MIC (μg/mL) of Exemplary Compounds in presence of fixed β-lactams: K. p. A-1797 KPC-2 VIM-4 [8]	MIC (μg/mL) of Exemplary Compounds in presence of fixed β-lactams: K. p. 11978 OXA-48 [9]	MIC (μg/mL) of Exemplary Compounds in presence of fixed β-lactams: K. p. 156319 KPC-3 [10]	MIC (μg/mL) of Exemplary Compounds in presence of fixed β-lactams: E. coli ESBL4 CTX-M-15 [1]	IC50 [11] [nM]
CC(C)(O/N=C(\C(=O)N[C@@H]1C(=O)N2C(C(=O)[O-])=C(C[n+]3ccccc3)CS[C@H]12)c1csc(N)n1)C(=O)O [Ceftazidime, ceftazidime, reference compound]	> 128	128										
NCCCc1c(CN)nnn1CC(=O)N[C@H]1Cc2cccc(C(=O)O)c2OB1O [Example 110, (R)-3-(2-(4-(aminomethyl)-5-(3-aminopropyl)-1H-1,2,3-triazol-1-yl)acetamido)-2-hydroxy-3,4-dihydro-2H-benzo[e][1,2]oxaborinine-8-carboxylic acid]			1000 to 10000	100 to 1000	< 100	100 to 1000	C (C represents an MIC of <1 μg/mL)	C (C represents an MIC of <1 μg/mL)	B (B represents an MIC between 1 and 16 μg/mL inclusive)	C (C represents an MIC of <1 μg/mL)	C (C represents an MIC of <1 μg/mL)	100 to 1000
O=C(Cn1cc(CF)nn1)N[C@H]1Cc2cccc(C(=O)O)c2OB1O [Example 111, (R)-3-(2-(4-(fluoromethyl)-1H-1,2,3-triazol-1-yl)acetamido)-2-hydroxy-3,4-dihydro-2H-benzo[e][1,2]oxaborinine-8-carboxylic acid]			< 100	< 100	1000 to 10000	< 100	B (B represents an MIC between 1 and 16 μg/mL inclusive)	B (B represents an MIC between 1 and 16 μg/mL inclusive)	B (B represents an MIC between 1 and 16 μg/mL inclusive)	B (B represents an MIC between 1 and 16 μg/mL inclusive)	C (C represents an MIC of <1 μg/mL)	100 to 1000
O=C(Cn1cc(CNCCCC(F)(F)F)nn1)N[C@H]1Cc2cccc(C(=O)O)c2OB1O [Example 112, (R)-2-hydroxy-3-(2-(4-(((4,4,4-trifluorobutyl)amino)methyl)-1H-1,2,3-triazol-1-yl)acetamido)-3,4-dihydro-2H-benzo[e][1,2]oxaborinine-8-carboxylic acid]			100 to 1000	100 to 1000	100 to 1000	< 100	C (C represents an MIC of <1 μg/mL)	B (B represents an MIC between 1 and 16 μg/mL inclusive)	A (A represents an MIC>16 μg/mL)	B (B represents an MIC between 1 and 16 μg/mL inclusive)	C (C represents an MIC of <1 μg/mL)	100 to 1000
O=C(Cn1ccc(B(O)O)n1)N[C@H]1Cc2cccc(C(=O)O)c2OB1O [Example 116, (R)-3-(2-(3-borono-1H-pyrazol-1-yl)acetamido)-2-hydroxy-3,4-dihydro-2H-benzo[e][1,2]oxaborinine-8-carboxylic acid]			< 100	< 100	1000 to 10000	< 100	C (C represents an MIC of <1 μg/mL)	B (B represents an MIC between 1 and 16 μg/mL inclusive)	B (B represents an MIC between 1 and 16 μg/mL inclusive)	B (B represents an MIC between 1 and 16 μg/mL inclusive)	C (C represents an MIC of <1 μg/mL)	100 to 1000
NCCn1cc(CC(=O)N[C@H]2Cc3cccc(C(=O)O)c3OB2O)nn1 [Example 122, (R)-3-(2-(1-(2-aminoethyl)-1H-1,2,3-triazol-4-yl)acetamido)-2-hydroxy-3,4-dihydro-2H-benzo[e][1,2]oxaborinine-8-carboxylic acid]			< 100	< 100	100 to 1000	< 100	C (C represents an MIC of <1 μg/mL)	B (B represents an MIC between 1 and 16 μg/mL inclusive)	B (B represents an MIC between 1 and 16 μg/mL inclusive)	B (B represents an MIC between 1 and 16 μg/mL inclusive)	C (C represents an MIC of <1 μg/mL)	100 to 1000
